Test [1] concerns the target HPK1 (SLP76 phosphorylation at Ser376 in Jurkat and EL-4 cells) (Homo sapiens, UniProt Q92918). Type of test: cell-based. An outline of the steps: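 Jurkat (human) and EL-4 (mouse) cells, endogenous HPK1/SLP76, preincubated 60 min with compounds (10-point dilution), then stimulated with αCD3/αCD28 beads at 37 °C: 15 min for Jurkat, 30 min for EL-4. Ser376 pSLP76 in lysates read by AlphaLISA (Jurkat) or HTRF (EL-4); % inhibition and IC50 fitted.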

For test [2], the target named is full-length human HPK1 (MAP4K1) (Homo sapiens (Human), UniProt Q92918). In words: HPK1 Kinase Assay (Biochemical Assay), ADP-Glo. Conditions: GST-HPK1 3.2 nM, 10 μM ATP, MBP substrate, read-out: HPK1 enzymatic IC50. An outline of the steps: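 GST-tagged full-length human HPK1 was expressed in Sf21 cells and used at 3.2 nM in 50 mM HEPES pH 7.5, 10 mM MgCl2, 2 mM DTT, 12.5 mM O-glycerophosphate, 0.01% BSA and 0.02% Brij-35. It was preincubated 15 min with 10-point compound dilutions, and the reaction was started with a start mix of 10 μM ATP and 3.235 μM MBP. After 120 min, ADP was measured by ADP-Glo luminescence and IC50 derived.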

[3] abbreviates: αCD3/αCD28 Dynabeads stimulated cells, pSLP76 (Ser376) detection; read-out: HPK1 pSLP76 IC50.
[4] abbreviates: read-out: HPK1 pSLP76 IC50; αCD3/αCD28 Dynabeads stimulated cells, pSLP76 (Ser376) detection.

Read-outs that look alike come from different tables or passages of the source.

full-length human HPK1 (MAP4K1), sequence (Q92918 whole entry): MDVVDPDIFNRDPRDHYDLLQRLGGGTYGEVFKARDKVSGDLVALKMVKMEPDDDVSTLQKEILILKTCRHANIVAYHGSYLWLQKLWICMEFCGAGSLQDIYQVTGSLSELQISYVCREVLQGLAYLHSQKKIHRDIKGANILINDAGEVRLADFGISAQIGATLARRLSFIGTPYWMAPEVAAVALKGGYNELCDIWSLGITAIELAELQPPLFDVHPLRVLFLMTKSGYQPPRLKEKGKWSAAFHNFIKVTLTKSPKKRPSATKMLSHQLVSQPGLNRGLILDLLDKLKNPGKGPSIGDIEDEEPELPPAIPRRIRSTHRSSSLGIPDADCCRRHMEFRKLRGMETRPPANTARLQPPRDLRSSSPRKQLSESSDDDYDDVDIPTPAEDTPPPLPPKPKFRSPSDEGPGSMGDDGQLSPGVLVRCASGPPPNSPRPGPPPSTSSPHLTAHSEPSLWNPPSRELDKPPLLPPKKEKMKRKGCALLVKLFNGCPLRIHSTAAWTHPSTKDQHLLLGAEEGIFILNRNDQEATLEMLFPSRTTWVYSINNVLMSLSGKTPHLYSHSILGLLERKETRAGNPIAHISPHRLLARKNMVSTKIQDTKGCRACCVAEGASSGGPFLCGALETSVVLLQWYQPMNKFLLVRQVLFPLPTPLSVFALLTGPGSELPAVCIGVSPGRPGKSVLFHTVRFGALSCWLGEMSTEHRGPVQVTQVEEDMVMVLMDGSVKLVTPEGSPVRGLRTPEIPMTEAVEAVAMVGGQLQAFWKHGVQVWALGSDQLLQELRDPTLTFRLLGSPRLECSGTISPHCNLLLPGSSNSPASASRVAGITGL
HPK1 (SLP76 phosphorylation at Ser376 in Jurkat and EL-4 cells), sequence (Q92918 whole entry, looked up): as the sequence (Q92918 whole entry) above

What is called IC50 is the concentration that gives 50% inhibition. `Cc1cc(Nc2ncc3c(n2)CN(c2cnc4c(c2C)NCCO4)CC3)ccc1C(=O)NC1CN(C)C1` [Example 35, 2-methyl-4-[(7-{8-methyl-1H,2H,3H-pyrido[2,3-b][1,4]oxazin-7-yl}-5H,6H,7H,8H-pyrido[3,4-d]pyrimidin-2-yl)amino]-N-(1-methylazetidin-3-yl)benzamide]: the IC50 is 500 to 1000 nM in test [1] (setting [3]) and below 100 nM in test [2].
For `Cc1cc(Nc2ncc3c(n2)CN(c2cnc4c(c2C)NCCO4)CC3)cnc1NCCN1CCOCC1` [Example 36, 3-methyl-N5-(7-{8-methyl-1H,2H,3H-pyrido[2,3-b][1,4]oxazin-7-yl}-5H,6H,7H,8H-pyrido[3,4-d]pyrimidin-2-yl)-N2-[2-(morpholin-4-yl)ethyl]pyridine-2,5-diamine], the IC50 is 500 to 1000 nM in test [1] (setting [3]) and below 100 nM in test [2].
As to `CN1CCc2cc(Nc3cc4c(cn3)CCN(c3cnc5c(c3Cl)NCCO5)C4)nn2CC1=O` [Example 37, 2-[(6-{8-chloro-1H,2H,3H-pyrido[2,3-b][1,4]oxazin-7-yl}-5,6,7,8-tetrahydro-2,6-naphthyridin-3-yl)amino]-6-methyl-4H,5H,6H,7H,8H-pyrazolo[1,5-d][1,4]diazepin-7-one], the IC50 in test [1] (setting [3]) was 500 to 1000 nM; in test [2] it was below 100 nM.
Consider `Cc1cc(Nc2ncc3c(n2)CN(c2cnc4c(c2C)NCCO4)CC3)ccc1C(=O)N1CC(N(C)C)C1` [Example 38, N,N-dimethyl-1-{2-methyl-4-[(7-{8-methyl-1H,2H,3H-pyrido[2,3-b][1,4]oxazin-7-yl}-5H,6H,7H,8H-pyrido[3,4-d]pyrimidin-2yl)amino]benzoyl}azetidin-3-amin], for which the IC50 in test [1] (setting [3]) is above 1000 nM; in test [2], below 100 nM.
For `Cc1cc(Nc2ncc3c(n2)CN(c2cnc4c(c2C)NCCO4)CC3)ccc1C(=O)NCCN1CCOCC1` [Example 39, 2-methyl-4-[(7-{8-methyl-1H,2H,3H-pyrido[2,3-b]oxazin-7-yl}-5H,6H,7H,8H-pyrido[3,4-d]pyrimidin-2-yl)amino]-N-[2-(morpholin-4-yl)ethyl] benzamide], in that order: below 500 nM and below 100 nM.
Regarding `Cc1c(N2CCc3cnc(Nc4ccc(CS(=O)(=O)C5CC5)nc4)nc3C2)cnc2c1NCCO2` [Example 40, 6-[(cyclopropanesulfonyl)methyl]-N-(7-{8-methyl-1H,2H,3H-pyrido[2,3-b][1,4]oxazin-7-yl}-5H,6H,7H,8H-pyrido[3,4-d]pyrimidin-2-yl) pyridin-3-amine], the IC50 in test [1] (setting [3]) was below 500 nM; in test [2], below 100 nM.
The corresponding values for `Cc1c(N2CCc3cnc(Nc4ccc(CS(=O)(=O)CC5(C)COC5)cc4)nc3C2)cnc2c1NCCO2` [Example 41, 7-{8-methyl-1H,2H,3H-pyrido[2,3-b][1,4]oxazin-7-yl}-N-(4-{[(3-methyloxetan-3-yl)methanesulfonyl]methyl}phenyl)-5H,6H,7H,8H-pyrido[3,4-d]pyrimidin-2-amine] are below 500 nM and below 100 nM.
`Cc1c(N2CCc3cnc(Nc4ccc(C(=O)N5CC[C@@H](N(C)C)C5)cc4)nc3C2)cnc2c1NCCO2` [Example 42, (3R)—N,N-dimethyl-1-{4-[(7-{8-methyl-1H,2H,3H-pyrido[2,3-b][1,4]oxazin-7-yl} 5H,6H,7H,8H-pyrido[3,4-d]pyrimidin-2-yl)amino]benzoyl}pyrrolidin-3-amine]: the IC50 in test [1] (setting [3]) is below 500 nM; in test [2], below 100 nM.
Consider `COCCNC(=O)c1ccc(Nc2ncc3c(n2)CN(c2cnc4c(c2C)NCCO4)CC3)cc1` [Example 44, N-(2-methoxyethyl)-4-[(7-{8-methyl-1H,2H,3H-pyrido[2,3-b][1,4]oxazin-7-yl}-5H,6H,7H,8H-pyrido[3,4-d]pyrimidin-2-yl)amino]benzamide], for which the IC50 in test [1] (setting [3]) is below 500 nM; in test [2] it was below 100 nM.
For the molecule `Cc1cc(Nc2ncc3c(n2)CN(c2cnc4c(c2C)NCCO4)CC3)ccc1NC(=O)CN(C)C` [Example 45, 2-(dimethylamino)-N-{2-methyl-4-[(7-{8-methyl-1H,2H,3H-pyrido[2,3-b][1,4]oxazin-7-yl}-5H,6H,7H,8H-pyrido[3,4-d]pyrimidin-2-yl)amino]phenyl}acetamide], the IC50 was below 500 nM in test [1] (setting [3]) and below 100 nM in test [2].
As to `CNCc1cccc(Nc2ncc3c(n2)CN(c2cnc4c(c2C)NCCO4)CC3)c1` [Example 46, 7-{8-methyl-1H,2H,3H-pyrido[2,3-b][1,4]oxazin-7-yl}-N-{3-[(methylamino)methyl]phenyl}-5H,6H,7H,8H-pyrido[3,4-d]pyrimidin-2-amine], the IC50 in test [1] (setting [3]) is 500 to 1000 nM; in test [2], below 100 nM.
On to `Cc1c(N2CCc3cnc(Nc4ccc5c(c4)CN(C)C5)cc3C2)cnc2c1NCCO2` [Example 47, 6-{8-methyl-1H,2H,3H-pyrido[2,3-b][1,4]oxazin-7-yl}-N-(2-methyl-2,3-dihydro-1H-isoindol-5-yl)-5,6,7,8-tetrahydro-2,6-naphthyridin-3-amine], for which the results for the IC50 in test [1] (setting [3]) and in test [2] were 500 to 1000 nM and below 100 nM, respectively.
For `Cc1cc(Nc2ncc3c(n2)CN(c2cnc4c(c2C)NCCO4)CC3)ccc1NC(=O)CN1CCOCC1` [Example 48, N-{2-methyl-4-[(7-{8-methyl-1H,2H,3H-pyrido[2,3-b][1,4]oxazin-7-yl}-5H,6H,7H,8H-pyrido[3,4-d]pyrimidin-2-yl)amino]phenyl}-2-(morpholin-4-yl)acetamide], in that order: below 500 nM and below 100 nM.
As for `Cc1c(N2CCc3cnc(Nc4ccnc(CS(C)(=O)=O)c4)nc3C2)cnc2c1NCCO2` [Example 49, 7-(8-methyl-2,3-dihydro-1H-pyrido[2,3-b][1,4]oxazin-7-yl)-N-(2-((methylsulfonyl)methyl)pyridin-4-yl)-5,6,7,8-tetrahydropyrido[3,4-d]pyrimidin-2-amine], the IC50 in test [1] (setting [3]) is 500 to 1000 nM; in test [2], below 100 nM.
`Cc1c(N2CCc3cnc(Nc4cccc(CS(C)(=O)=O)c4)nc3C2)cnc2c1NCCO2` [Example 50, 7-(8-methyl-2,3-dihydro-1H-pyrido[2,3-b][1,4]oxazin-7-yl)-N-(3-((methylsulfonyl)methyl)phenyl)-5,6,7,8-tetrahydropyrido[3,4-d]pyrimidin-2-amine]: the IC50 was below 500 nM in test [1] (setting [3]) and below 100 nM in test [2].
For `Cc1c(N2CCc3cnc(Nc4ccc(CS(C)(=O)=O)nc4)cc3C2)cnc2c1NCCO2` [Example 51, 6-(8-methyl-2,3-dihydro-1H-pyrido[2,3-b][1,4]oxazin-7-yl)-N-(6-((methylsulfonyl)methyl)pyridin-3-yl)-5,6,7,8-tetrahydro-2,6-naphthyridin-3-amine], in that order: 500 to 1000 nM and below 100 nM.
`Cc1c(N2CCc3cnc(Nc4ccc(C5(O)CCN(C)CC5)cc4)cc3C2)cnc2c1NCCO2` [Example 52, 1-methyl-4-(4-((6-(8-methyl-2,3-dihydro-1H-pyrido[2,3-b][1,4]oxazin-7-yl)-5,6,7,8-tetrahydro-2,6-naphthyridin-3-yl)amino)phenyl)piperidin-4-ol]: the IC50 in test [1] (setting [3]) was 500 to 1000 nM; in test [2], below 100 nM.
For `CNCc1ccc(Nc2ncc3c(n2)CN(c2cnc4c(c2C)NCCO4)CC3)cc1` [Example 53, 7-(8-methyl-2,3-dihydro-1H-pyrido[2,3-b][1,4]oxazin-7-yl)-N-(4-((methylamino)methyl)phenyl)-5,6,7,8-tetrahydropyrido[3,4-d]pyrimidin-2-amine], the IC50 in test [1] (setting [3]) was 500 to 1000 nM; in test [2] it was below 100 nM.
For `Cc1c(N2CCc3cnc(Nc4ccc(N5CCN(C)CC5)cc4)nc3C2)cnc2c1NCCO2` [Example 55, 7-(8-methyl-2,3-dihydro-1H-pyrido[2,3-b][1,4]oxazin-7-yl)-N-(4-(4-methylpiperazin-1-yl)phenyl)-5,6,7,8-tetrahydropyrido[3,4-d]pyrimidin-2-amine], the IC50 in test [1] (setting [4]) is 500 to 1000 nM; in test [2], below 100 nM.
As for `Cc1c(N2CCc3cnc(Nc4ccc(NC(=O)CN(C)C)nc4)nc3C2)cnc2c1NCCO2` [Example 56, 2-(dimethylamino)-N-(5-((7-(8-methyl-2,3-dihydro-1H-pyrido[2,3-b][1,4]oxazin-7-yl)-5,6,7,8-tetrahydropyrido[3,4-d]pyrimidin-2-yl)amino)pyridin-2-yl)acetamide], the IC50 in test [1] (setting [4]) is below 500 nM; in test [2] it was below 100 nM.
Regarding `Cc1c(N2CCc3cnc(Nc4ccc(CS(C)(=O)=O)cc4)cc3C2)cnc2c1NCCO2` [Example 57, N-[4-(methanesulfonylmethyl)phenyl]-6-{8-methyl-1H,2H,3H-pyrido[2,3-b][1,4]oxazin-7-yl}-5,6,7,8-tetrahydro-2,6-naphthyridin-3-amine], the IC50 was below 500 nM in test [1] (setting [3]) and below 100 nM in test [2].
`Cc1c(N2CCc3cnc(Nc4ccc(CS(C)(=O)=O)nc4)nc3C2)cnc2c1NCCO2` [Example 58, 6-(methanesulfonylmethyl)-N-(7-{8-methyl-1H,2H,3H-pyrido[2,3-b][1,4]oxazin-7-yl}-5H,6H,7H,8H-pyrido[3,4-d]pyrimidin-2-yl)pyridin-3-amine]: the results for the IC50 in test [1] (setting [3]) and in test [2] were below 500 nM and below 100 nM, respectively.
For the molecule `Cc1c(N2CCc3cnc(Nc4ccc(CN(C)C)cc4)nc3C2)cnc2c1NCCO2` [Example 59, N-{4-[(dimethylamino)methyl]phenyl}-7-{8-methyl-1H,2H,3H-pyrido[2,3-b][1,4]oxazin-7-yl}-5H,6H,7H,8H-pyrido[3,4-d]pyrimidin-2-amine; formic acid], the figures for the IC50 in test [1] (setting [3]) and in test [2] were above 1000 nM and below 100 nM, respectively.
